Test results published in US10112899B2 (ViiV HEALTHCARE UK LIMITED, priority 2014, dated 2018).

Each compound was assayed on HIV in the HTLV-1 transformed cell line MT-4 (assay: organism not typed). Details: MT4, 96 h, MT-4 cells; luciferase/cell titer glo readout after 96 hours; 10 point dose response.
Assay type: cell-based

SMILES	IC50
Cc1ccc(-c2c(C)c3c(c(C)c2[C@H](OC(C)(C)C)C(=O)O)CN(C(=O)c2cncc(C)c2)C3)cc1 [Example 236, (S)-2-(tert-butoxy)-2-(4,7-dimethyl-2-(5-methylnicotinoyl)-6-(p-tolyl)isoindolin-5-yl)acetic acid]	0.005 µM
COC1CCC(C(=O)N2Cc3c(C)c(-c4ccc(C)cc4)c([C@H](OC(C)(C)C)C(=O)O)c(C)c3C2)CC1 (stereo partly drawn) [Example 116, (S)-2-(tert-butoxy)-2-(2-(4-methoxycyclohexanecarbonyl)-4,7-dimethyl-6-(p-tolyl)isoindolin-5-yl)acetic acid]	0.031 µM
COc1ccc(F)cc1C(=O)N1Cc2c(C)c(-c3cc(F)c4c(c3C)CCCO4)c([C@H](OC(C)(C)C)C(=O)O)c(C)c2C1 (atropisomer, axis not shown; (M)) [Example 150, (S)-2-(tert-butoxy)-2-((M)-2-(5-fluoro-2-methoxybenzoyl)-6-(8-fluoro-5-methylchroman-6-yl)-4,7-dimethylisoindolin-5-yl)acetic acid]	0.004 µM
Cc1cncc(C(=O)N2Cc3c(C)c(-c4cc(F)c5c(c4C)CCCO5)c([C@H](OC(C)(C)C)C(=O)O)c(C)c3C2)c1 (atropisomer, axis not shown; (M)) [Example 182, (S)-2-(tert-butoxy)-2-((M)-6-(8-fluoro-5-methylchroman-6-yl)-4,7-dimethyl-2-(5-methylnicotinoyl)isoindolin-5-yl)acetic acid]	0.005 µM
Cc1ccc(-c2c(C)c3c(c(C)c2[C@H](OC(C)(C)C)C(=O)O)CN(C(=O)N2CCC2)C3)cc1 [Example 61, (2S)-2-[2-(azetidine-1-carbonyl)-4,7-dimethyl-6-(4-methylphenyl)-2,3-dihydro-1H-isoindol-5-yl]-2-(tert-butoxy)acetic acid]	0.038 µM
COc1ccc(C)cc1C(=O)N1Cc2c(C)c(-c3cc(F)c4c(c3C)CCCO4)c([C@H](OC(C)(C)C)C(=O)O)c(C)c2C1 (atropisomer, axis not shown; (M)) [Example 183, (S)-2-(tert-butoxy)-2-((M)-6-(8-fluoro-5-methylchroman-6-yl)-2-(2-methoxy-5-methylbenzoyl)-4,7-dimethylisoindolin-5-yl)acetic acid]	0.004 µM
COCCN(C)C(=O)N1Cc2c(C)c(-c3ccc(C)cc3)c([C@H](OC(C)(C)C)C(=O)O)c(C)c2C1 [Example 62, (2S)-2-(tert-butoxy)-2-{2-[(2-methoxyethyl)(methyl)carbamoyl]-4,7-dimethyl-6-(4-methylphenyl)-2,3-dihydro-1H-isoindol-5-yl}acetic acid]	0.044 µM
Cc1c(-c2c(C)c3c(c(C)c2[C@H](OC(C)(C)C)C(=O)O)CN(C(=O)c2cccc4c2OCO4)C3)cc(F)c2c1NCCO2 [Example 310, (2S)-2-(2-(benzo[d][1,3]dioxole-4-carbonyl)-6-(8-fluoro-5-methyl-3,4-dihydro-2H-benzo[b][1,4]oxazin-6-yl)-4,7-dimethylisoindolin-5-yl)-2-(tert-butoxy)acetic acid]	0.018 µM
Cc1ccc(-c2c(C)c3c(c(C)c2[C@H](OC(C)(C)C)C(=O)O)CN(C(=S)N2CCCCC2)C3)cc1 [Example 131, (S)-2-(tert-butoxy)-2-(4,7-dimethyl-2-(piperidine-1-carbonothioyl)-6-(p-tolyl)isoindolin-5-yl)acetic acid]	0.019 µM
Cc1ccc(-c2c(C)c3c(c(C)c2[C@H](OC(C)(C)C)C(=O)O)CN(C(=O)c2ccc4c(c2)OCO4)C3)cc1 [Example 265, (S)-2-(2-(benzo[d][1,3]dioxole-5-carbonyl)-4,7-dimethyl-6-(p-tolyl)isoindolin-5-yl)-2-(tert-butoxy)acetic acid]	0.004 µM
Cc1c(-c2c(C)c3c(c(C)c2[C@H](OC(C)(C)C)C(=O)O)CN(S(=O)(=O)c2cccc(F)c2)C3)cc(F)c2c1CCCO2 (atropisomer, axis not shown; (M)) [Example 218, (S)-2-(tert-butoxy)-2-((M)-6-(8-fluoro-5-methylchroman-6-yl)-2-((3-fluorophenyl)sulfonyl)-4,7-dimethylisoindolin-5-yl)acetic acid]	0.011 µM
COc1cc(C(=O)N2Cc3c(C)c(-c4ccc(C)cc4)c([C@H](OC(C)(C)C)C(=O)O)c(C)c3C2)ccc1F [Example 251, (S)-2-(tert-butoxy)-2-(2-(4-fluoro-3-methoxybenzoyl)-4,7-dimethyl-6-(p-tolyl)isoindolin-5-yl)acetic acid]	0.003 µM
Cc1ccc(-c2c(C)c3c(c(C)c2[C@H](OC(C)(C)C)C(=O)O)CN(C(=O)N[C@H]2CC[C@H](C)CC2)C3)cc1 [Example 33, (S)-2-(tert-butoxy)-2-(4,7-dimethyl-2-(((1r,4S)-4-methylcyclohexyl)carbamoyl)-6-(p-tolyl)isoindolin-5-yl)acetic acid]	0.616 µM
Cc1c(-c2c(C)c3c(c(C)c2[C@H](OC(C)(C)C)C(=O)O)CN(C(=O)N2CCC(C)(C)CC2)C3)cc(F)c2c1CCCO2 (atropisomer, axis not shown; (M)) [Example 211, (S)-2-(tert-butoxy)-2-((M)-2-(4,4-dimethylpiperidine-1-carbonyl)-6-(8-fluoro-5-methylchroman-6-yl)-4,7-dimethylisoindolin-5-yl)acetic acid]	0.005 µM
Cc1ccc(-c2c(C)c3c(c(C)c2[C@H](OC(C)(C)C)C(=O)O)CN(C(=O)c2ccc(C(F)(F)F)cc2)C3)cc1 [Example 227, (S)-2-(tert-butoxy)-2-(4,7-dimethyl-6-(p-tolyl)-2-(4-(trifluoromethyl)benzoyl)isoindolin-5-yl)acetic acid]	0.014 µM
Cc1ccc(-c2c(C)c3c(c(C)c2[C@H](OC(C)(C)C)C(=O)O)CN(C(=O)c2cccc(B(O)O)c2)C3)cc1 [Example 257, (S)-2-(2-(3-boronobenzoyl)-4,7-dimethyl-6-(p-tolyl)isoindolin-5-yl)-2-(tert-butoxy)acetic acid]	0.134 µM
Cc1ccc(-c2c(C)c3c(c(C)c2[C@H](OC(C)(C)C)C(=O)O)CN(C(=O)N2CCC(F)CC2)C3)cc1 [Example 89, (S)-2-(tert-butoxy)-2-(2-(4-fluoropiperidine-1-carbonyl)-4,7-dimethyl-6-(p-tolyl)isoindolin-5-yl)acetic acid]	0.011 µM
Cc1ccc(-c2c(C)c3c(c(C)c2[C@H](OC(C)(C)C)C(=O)O)CN(C2CCC[C@@H](C)C2)C3)cc1 (stereo partly drawn) [Example 32, (2S)-2-(tert-butoxy)-2-(4,7-dimethyl-2-((3R)-3-methylcyclohexyl)-6-(p-tolyl)isoindolin-5-yl)acetic acid]	0.723 µM
Cc1ccc(-c2c(C)c3c(c(C)c2[C@H](OC(C)(C)C)C(=O)O)CN(C(=O)NCC2CCCCC2)C3)cc1 [Example 58, (2S)-2-(tert-butoxy)-2-{2-[(cyclohexylmethyl)carbamoyl]-4,7-dimethyl-6-(4-methylphenyl)-2,3-dihydro-1H-isoindol-5-yl}acetic acid]	0.35 µM
Cc1ccc(-c2c(C)c3c(c(C)c2[C@H](OC(C)(C)C)C(=O)O)CN(Cc2ccccc2F)C3)cc1 [Example 21, (S)-2-(tert-butoxy)-2-(2-(2-fluorobenzyl)-4,7-dimethyl-6-(p-tolyl)isoindolin-5-yl)acetic acid]	0.04 µM
Cc1ccc(-c2c(C)c3c(c(C)c2[C@H](OC(C)(C)C)C(=O)O)CN(S(=O)(=O)N2CCOCC2)C3)cc1 [Example 52, (2S)-2-(tert-butoxy)-2-[4,7-dimethyl-6-(4-methylphenyl)-2-(morpholine-4-sulfonyl)-2,3-dihydro-1H-isoindol-5-yl]acetic acid]	0.018 µM
Cc1ccc(-c2c(C)c3c(c(C)c2[C@H](OC(C)(C)C)C(=O)O)CN(C(=O)NC2CCC(C)CC2)C3)cc1 (stereo partly drawn) [Example 54, (2S)-2-(tert-butoxy)-2-[4,7-dimethyl-6-(4-methylphenyl)-2-{[(1r,4r)-4-methylcyclohexyl]carbamoyl}-2,3-dihydro-1H-isoindol-5-yl]acetic acid]	0.288 µM
Cc1ccc(-c2c(C)c3c(c(C)c2[C@H](OC(C)(C)C)C(=O)O)CN(C(=O)c2ccc(C)c(F)c2)C3)cc1 [Example 115, (S)-2-(tert-butoxy)-2-(2-(3-fluoro-4-methylbenzoyl)-4,7-dimethyl-6-(p-tolyl)isoindolin-5-yl)acetic acid]	0.006 µM
COc1ccccc1C(=O)N1Cc2c(C)c(-c3cc(F)c4c(c3C)CCCO4)c([C@H](OC(C)(C)C)C(=O)O)c(C)c2C1 (atropisomer, axis not shown; (M)) [Example 199, (S)-2-(tert-butoxy)-2-((M)-6-(8-fluoro-5-methylchroman-6-yl)-2-(2-methoxybenzoyl)-4,7-dimethylisoindolin-5-yl)acetic acid]	0.004 µM
Cc1ccc(-c2c(C)c3c(c(C)c2[C@H](OC(C)(C)C)C(=O)O)CN(C(=O)C(=O)N2CCCCC2)C3)cc1 [Example 129]	0.014 µM
Cc1c(-c2c(C)c3c(c(C)c2[C@H](OC(C)(C)C)C(=O)O)CN(C(=O)N2CCC[C@@H]2C)C3)cc(F)c2c1CCCO2 (atropisomer, axis not shown; (M)) [Example 212, (S)-2-(tert-butoxy)-2-((M)-6-(8-fluoro-5-methylchroman-6-yl)-4,7-dimethyl-2-((S)-2-methylpyrrolidine-1-carbonyl)isoindolin-5-yl)acetic acid]	0.002 µM
Cc1ccc(-c2c(C)c3c(c(C)c2C(OC(C)(C)C)C(=O)O)CN(S(C)(=O)=O)C3)cc1 (centres unmarked) [Example 15, 2-(tert-Butoxy)-2-(4,7-dimethyl-2-(methylsulfonyl)-6-(p-tolyl)isoindolin-5-yl)acetic acid]	2.13 µM
Cc1ccc(-c2c(C)c3c(c(C)c2C(OC(C)(C)C)C(=O)O)CN(S(=O)(=O)c2cccc4ccccc24)C3)cc1 (centres unmarked) [Example 16, 2-(tert-Butoxy)-2-(4,7-dimethyl-2-(naphthalen-1-ylsulfonyl)-6-(p-tolyl)isoindolin-5-yl)acetic acid]	0.062 µM

Same assay, conditions: MT-4 cells; luciferase/cell titer glo readout after 96 hours; 10 point dose response

SMILES	IC50
COC1CCCC(C(=O)N2Cc3c(C)c(-c4ccc(C)cc4)c([C@H](OC(C)(C)C)C(=O)O)c(C)c3C2)C1 (stereo partly drawn) [Example 245, (2S)-2-(tert-butoxy)-2-(2-(3-methoxycyclohexanecarbonyl)-4,7-dimethyl-6-(p-tolyl)isoindolin-5-yl)acetic acid]	0.026 µM
